# From patent US20240343727A1, “PYRIDAZINONE OR PYRIDINONE COMPOUNDS, PREPARATION METHODS AND USES THEREOF” (InventisBio Co., Ltd., priority 2021, published 2024)
# Target: T1, PARP7 (Homo sapiens, UniProt Q7Z3E1)
# T1 sequence (Q7Z3E1 1-657): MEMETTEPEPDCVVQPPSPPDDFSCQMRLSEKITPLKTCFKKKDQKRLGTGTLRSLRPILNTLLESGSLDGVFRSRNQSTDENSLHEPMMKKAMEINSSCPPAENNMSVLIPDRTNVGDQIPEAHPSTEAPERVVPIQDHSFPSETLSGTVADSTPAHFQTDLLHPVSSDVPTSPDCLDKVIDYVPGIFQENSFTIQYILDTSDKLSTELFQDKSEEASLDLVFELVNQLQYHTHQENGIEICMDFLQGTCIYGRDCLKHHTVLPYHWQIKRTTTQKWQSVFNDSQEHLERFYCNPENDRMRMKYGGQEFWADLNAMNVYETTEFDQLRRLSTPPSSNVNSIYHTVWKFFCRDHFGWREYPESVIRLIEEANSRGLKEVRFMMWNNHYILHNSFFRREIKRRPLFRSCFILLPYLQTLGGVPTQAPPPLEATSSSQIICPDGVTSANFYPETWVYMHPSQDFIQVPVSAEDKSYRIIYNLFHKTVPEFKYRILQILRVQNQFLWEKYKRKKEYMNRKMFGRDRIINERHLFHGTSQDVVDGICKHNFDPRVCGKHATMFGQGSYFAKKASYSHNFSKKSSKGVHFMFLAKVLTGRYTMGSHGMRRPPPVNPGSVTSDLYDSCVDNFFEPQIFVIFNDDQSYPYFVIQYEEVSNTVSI
# Test: PARP7 TR-FRET assay (binding, displacement of biotinylated Probe A)
# Conditions: 6 nM PARP7, 2 nM Probe A, 25° C., 30 min
# Protocol: Biological Assay Example A: PARP7 TR-FRET Assay
# A time-resolved fluorescence energy transfer (TR-FRET) assay was used to test binding activity of compounds to PARP7. Two microliter test compound was added in 384-well plate. Reactions were performed in a 6 uL volume by adding 4 uL mixture of PARP7 and Probe A (a biotinylated probe binding to the PARP7: N-(6-(2-(4-((2-(6-oxo-5-(trifluoromethyl)-1,6-dihydropyridazin-4-yl) isoindolin-5-yl) oxy) piperidin-1-yl) acetamido) hexyl)-5-((3aS,4S,6aR)-2-oxohexahydro-1H-thieno [3,4-d]imidazol-4-yl) pentanamide, made as reported in WO2019212937A1) in assay buffer (20 mM HEPES pH 8.0, 100 mM NaCl, 0.1% BSA, 2 mM DTT and 0.002% Tween20). The final concentration of PARP7 and Probe A were 6 nM and 2 nM, incubating with test compounds at 25° C. for 30 min. Four microliter ULight-anti 6xHis and LANCE Eu-W1024 labeled streptavidin (PerkinElmer) were added with the final concentration of ULight-anti 6xHis and LANCE Eu-W1024 at 4 nM and 0.25 nM. The reaction mixture was incubated at 25° C. for 30 min. The plate was read on a Tecan Spark plate reader (excitation wavelength at 320 nm, emission wavelength at 615 nm and 665 nm with a 90 us delay. The ratio of the 665/615 nm emission was calculated for each well to the amount of complex of PARP7 and Probe A in each well was calculated. The 0.25% DMSO vehicle was used as control and no PARP7 well was as blank well. Inhibition rate is calculated with the formula of % inhibition=100-100*(TRFcmpd-TRFblank)/(TRFcontrol−TRFblank). Inhibition IC50 is calculated with the equation of Y=Bottom+ (Top-Bottom)/(1+10^((LogIC50−X) *Hill Slope))
row,IC50,SMILES
1,< 0.1 µM,"C#Cc1c(C)c(N2CCOC(CC(=O)N3CCN(c4ncc(C(F)(F)F)cn4)CC3)C2)n[nH]c1=O (single isomer, unassigned) [Compound 89]"
2,< 0.1 µM,"C#Cc1ccc2c(=O)[nH]nc(N3CCOC(CC(=O)N4CCN(c5ncc(C(F)(F)F)cn5)CC4)C3)c2c1 (single isomer, unassigned) [Compound 194]"
3,> 1 µM,"O=C(COC1CCOc2c1n[nH]c(=O)c2Br)N1CCN(c2ncc(C(F)(F)F)cn2)CC1 (single isomer, unassigned) [Compound 9]"
4,0.1 to 1 µM,"C#Cc1cc(N2CCOC(CC(=O)N3CCN(c4ncc(C(F)(F)F)cn4)CC3)C2)n[nH]c1=O (single isomer, unassigned) [Compound 44]"
5,0.1 to 1 µM,C[C@H]1CN(c2n[nH]c(=O)c3c(F)cccc23)C[C@H](CC(=O)N2CCN(c3ncc(C(F)(F)F)cn3)CC2)O1 (stereo in doubt) [Compound 91]
6,< 0.1 µM,"Cn1ccc(-c2ccc3c(=O)[nH]nc(N4CCOC(CC(=O)N5CCN(c6ncc(C(F)(F)F)cn6)CC5)C4)c3c2)n1 (single isomer, unassigned) [Compound 259]"
7,0.1 to 1 µM,"O=C(CO[C@H]1CCNc2c1n[nH]c(=O)c2C(F)(F)F)N1CCN(c2ncc(C(F)(F)F)cn2)CC1 (single isomer, unassigned) [Compound 3]"
8,< 0.1 µM,"O=C(CC1CN(c2cc(C(F)(F)F)c(=O)[nH]n2)c2ccccc2O1)N1CCN(c2ncc(Cl)cn2)CC1 (single isomer, unassigned) [Compound 296]"
9,< 0.1 µM,"O=C(CC1CN(c2n[nH]c(=O)c3ccc(F)cc23)CCO1)N1CCN(c2ncc(C(F)(F)F)cn2)CC1 (single isomer, unassigned) [Compound 52]"
10,0.1 to 1 µM,"O=C(CC1CN(c2cc(C(F)(F)F)c(=O)[nH]n2)c2cc(F)ccc2O1)N1CCN(c2ncc(OC(F)(F)F)cn2)CC1 (single isomer, unassigned) [Compound 312]"
11,< 0.1 µM,"O=C(CC1CN(c2cc(C(F)(F)F)c(=O)[nH]n2)c2ccccc2O1)N1CCN(c2ncc(C(F)F)cn2)CC1 (single isomer, unassigned) [Compound 248]"
12,< 0.1 µM,"CNC(=O)c1ccc2c(c1)N(c1cc(C(F)(F)F)c(=O)[nH]n1)CC(CC(=O)N1CCN(c3ncc(C(F)(F)F)cn3)CC1)O2 (single isomer, unassigned) [Compound 323]"
13,< 0.1 µM,"O=C(CC1CN(c2cc(C(F)(F)F)c(=O)[nH]n2)c2cc(C(F)F)ccc2O1)N1CCN(c2ncc(C(F)(F)F)cn2)CC1 (single isomer, unassigned) [Compound 228]"
14,< 0.1 µM,"O=C(CC1CN(c2n[nH]c(=O)c3ccc(OCC(F)F)cc23)CCO1)N1CCN(c2ncc(C(F)(F)F)cn2)CC1 (single isomer, unassigned) [Compound 211]"
15,< 0.1 µM,O=C(c1cccc(Oc2n[nH]c(=O)c(C(F)(F)F)c2C2CC2)c1)N1CCN(c2ncc(C(F)(F)F)cn2)CC1 [Compound 173]
16,< 0.1 µM,O=C(c1cccc(Oc2n[nH]c(=O)c(C(F)(F)F)c2N2CC(F)C2)c1)N1CCN(c2ncc(C(F)(F)F)cn2)CC1 [Compound 85]
17,0.1 to 1 µM,"O=C(CC1CN(c2cc(C(F)(F)F)c(=O)[nH]n2)c2cc(F)ccc2O1)N1CCN(c2ncc(C(F)(F)F)cn2)CC1 (single isomer, unassigned) [Compound 131]"
18,< 0.1 µM,O=C(c1cccc(Oc2n[nH]c(=O)c(C(F)(F)F)c2NCC2CC2)c1)N1CCN(c2ncc(C(F)(F)F)cn2)CC1 [Compound 204]
19,> 1 µM,"O=C(CC1CN(c2n[nH]c(=O)c3cccnc23)CCO1)N1CCN(c2ncc(C(F)(F)F)cn2)CC1 (single isomer, unassigned) [Compound 124]"
20,> 1 µM,"N#CC1(c2ccnc(N3CCN(C(=O)CC4CN(c5cc(C(F)(F)F)c(=O)[nH]n5)c5cc(Cl)ccc5O4)CC3)n2)CC1 (single isomer, unassigned) [Compound 345]"
21,< 0.1 µM,COC1CN(c2c(Oc3cncc(C(=O)N4CCN(c5ncc(C(F)(F)F)cn5)CC4)c3)n[nH]c(=O)c2C(F)(F)F)C1 [Compound 239]
22,< 0.1 µM,"O=C(CC1CN(c2cc(C(F)(F)F)c(=O)[nH]n2)c2cc(N3CCOCC3=O)ccc2O1)N1CCN(c2ncc(C(F)(F)F)cn2)CC1 (single isomer, unassigned) [Compound 281]"
23,< 0.1 µM,"N#Cc1ccc2c(c1)N(c1cc(C(F)(F)F)c(=O)[nH]n1)CC(CC(=O)N1CCN(c3ncc(C(F)(F)F)cn3)CC1)O2 (single isomer, unassigned) [Compound 200]"
24,0.1 to 1 µM,"CNCc1ccc2c(c1)N(c1cc(C(F)(F)F)c(=O)[nH]n1)CC(CC(=O)N1CCN(c3ncc(C(F)(F)F)cn3)CC1)O2 (single isomer, unassigned) [Compound 297]"

# Second part, the molecule before the results:
row,SMILES,IC50
1,O=C(c1cccc(Oc2n[nH]c(=O)c(C(F)(F)F)c2N2CC3(CC3)C2)c1)N1CCN(c2ncc(C(F)(F)F)cn2)CC1 [Compound 59],< 0.1 µM
2,Cc1c(Oc2ccc(F)c(C(=O)N3CCN(c4ncc(C(F)(F)F)cn4)CC3)c2)n[nH]c(=O)c1C(F)(F)F [Compound 25],< 0.1 µM
3,O=C(c1cccc(Oc2n[nH]c(=O)c(C(F)(F)F)c2OCC2CCOCC2)c1)N1CCN(c2ncc(C(F)(F)F)cn2)CC1 [Compound 217],< 0.1 µM
4,O=C(c1cccc(Oc2n[nH]c(=O)c(C(F)(F)F)c2N2CC3(CCC3)C2)c1)N1CCN(c2ccc(C(F)(F)F)cn2)CC1 [Compound 187],< 0.1 µM
5,"N#Cc1ccc(N2CCN(C(=O)CC3CN(c4cc(C(F)(F)F)c(=O)[nH]n4)c4cc(Cl)ccc4O3)CC2)nc1 (single isomer, unassigned) [Compound 224]",< 0.1 µM
6,O=C(c1cccc(Oc2n[nH]c(=O)c(C(F)(F)F)c2N2CC3(CCO3)C2)c1)N1CC2CCC(C1)N2c1ncc(C(F)(F)F)cn1 [Compound 257],< 0.1 µM
7,O=C(c1cccc(Oc2n[nH]c(=O)c(C(F)(F)F)c2NC2CC3(COC3)C2)c1)N1CCN(c2ncc(C(F)(F)F)cn2)CC1 [Compound 202],< 0.1 µM
8,O=C(c1cccc(Oc2n[nH]c(=O)c(C(F)(F)F)c2N2CC3(CCC3)C2)c1)N1CCN(c2ncc(C(F)(F)F)cn2)CC1 [Compound 70],< 0.1 µM
9,Cc1c(C(F)(F)F)c(Oc2cccc(C(=O)N3CCN(c4ncc(C(F)(F)F)cn4)CC3)c2)n[nH]c1=O [Compound 17],> 1 µM
10,"N#Cc1ccc(N2CCN(C(=O)CC3CN(c4cc(C(F)(F)F)c(=O)[nH]n4)c4ccccc4O3)CC2)nc1 (single isomer, unassigned) [Compound 222]",0.1 to 1 µM
11,CC(C)C1CN(c2c(Oc3cccc(C(=O)N4CCN(c5ncc(C(F)(F)F)cn5)CC4)c3)n[nH]c(=O)c2C(F)(F)F)C1 [Compound 183],< 0.1 µM
12,O=C(c1cccc(Oc2n[nH]c(=O)c(C(F)(F)F)c2N2CC(C(F)F)C2)c1)N1CCN(c2ncc(C(F)(F)F)cn2)CC1 [Compound 72],< 0.1 µM
13,"O=C(CC1CN(c2cc(C(F)(F)F)c(=O)[nH]n2)c2ccccc2O1)N1CCN(c2nnc(C(F)(F)F)s2)CC1 (single isomer, unassigned) [Compound 287]",0.1 to 1 µM
14,"C[C@@H]1CN(C(=O)CC2CN(c3cc(C(F)(F)F)c(=O)[nH]n3)c3cc(F)ccc3O2)CCN1c1ncc(C#N)cn1 (single isomer, unassigned) [Compound 326]",0.1 to 1 µM
15,O=C(c1cccc(Oc2n[nH]c(=O)c(C(F)(F)F)c2N2CC3(CCCO3)C2)c1)N1CCN(c2ncc(C(F)(F)F)cn2)CC1 [Compound 162],< 0.1 µM
16,O=C(c1cccc(Oc2n[nH]c(=O)c(C(F)(F)F)c2N2CC3(CCC3)C2)c1)N1CCN(c2ccc(Cl)cn2)CC1 [Compound 182],< 0.1 µM
17,Cc1c(Oc2cc(C(=O)N3CCN(c4ncc(C(F)(F)F)cn4)CC3)ccc2C2CC2)n[nH]c(=O)c1C(F)(F)F [Compound 64],< 0.1 µM
18,C[C@H]1CN(C(=O)c2cccc(Oc3n[nH]c(=O)c(C(F)(F)F)c3N3CC4(CCO4)C3)c2)CCN1c1ncc(C(F)(F)F)cn1 [Compound 254],< 0.1 µM
19,N#Cc1ccc(N2CCN(C(=O)c3cncc(Oc4n[nH]c(=O)c(C(F)(F)F)c4N4CC5(C4)CC(F)(F)C5)c3)CC2)nc1 [Compound 237],< 0.1 µM
